Data on 86 compounds can be found in a melting point compilation (Tetko et al.; mined from patent text by program, amines drawn as free bases though some values may be those of a salt).

Regarding `CCC(CC)c1ccc(C=O)c2nc(Oc3c(C)cc(Cl)cc3Cl)n(C)c12`, the melting point (in general, the temperature, or range, at which the solid turns liquid) was in the range of 148 to 149 °C.
Turning to `CC(=O)c1ccc(Nc2nnc(Cc3ccncc3)c3ccccc23)cc1O`, the melting point was 234 to 236 °C.
The result for `CC(C)(C)OC(=O)N[C@H]1CC[C@H](CCN2CCCN(c3cccc(Cl)c3Cl)CC2)CC1` reads 95 to 98 °C; that for `CC(=O)C(CCCc1ccccc1)n1cnc2c(=O)[nH]c(Cc3ccc(OC(F)F)c(N)c3)nc21` (stereo unspecified), 149 to 150 °C; that for `CC(=O)Nc1ccc(C(=O)N2CCOCC2)cc1[N+](=O)[O-]`, 128 to 132 °C.
With `COc1cc(-c2nn(C)c(C(F)(F)F)c2Br)c(F)cc1N`, the melting point lay in the range of 85 to 86 °C.
Turning to `O=[N+]([O-])c1ccc(CS(=O)(=O)CCO)c(CS(=O)(=O)CCO)c1`, the melting point is 126 to 128 °C.
The compound `Cc1nc(NC(=O)c2cnn3c(C(F)(F)F)cc(-c4ccc(C(F)(F)F)c(OCC(F)(F)F)c4)nc23)sc1S(N)(=O)=O` showed a melting point of 264 °C.
On to `O=C(NCCCC(=O)N1CCCC1)c1cc(Br)no1`, for which the melting point lay in the range of 120 to 121 °C.
The compound `CC(C)C1(C)NC(c2nc3ccccc3cc2C=O)=NC1=O` (stereo unspecified) returned a melting point of 226 to 227 °C.
Take `CC(C)(C)c1cc(NC(=O)c2csc(-c3ccc([N+](=O)[O-])cc3)n2)cc(C(C)(C)C)c1O`: the melting point is 262 to 264 °C.
The compound `O=C(NCc1ccc(Cl)cc1)c1cnc2c(Cl)c(Cl)ccc2c1O` returned a melting point of 295 to 297 °C.
For `Cn1ncc2[nH]c3ccc(Cc4cccc(C(N)=O)c4)cc3c(=O)c21`, the melting point was more than 300 °C.
For `NCc1ccc(N2CC(C(=O)O)OC2=O)cc1` (stereo unspecified), the melting point is 211 to 212 °C.
Turning to `Nc1c(C(=O)O)sc2cc(F)ccc12`, the melting point was in the range of 160 to 163 °C.
Take `CCCCOCCOc1ccc(-c2ccc(N3CCC(CC(=O)OCC)C3)c(C=C(C)C(=O)O)c2)cc1` (stereo unspecified): the melting point stood at 116 °C.
For `CCn1nc(-c2nc(C(=O)O)c(NCc3ccc(OC)cc3)nc2-c2ccccc2)ccc1=O`, the melting point is more than 250 °C.
Compound `CCC1(C)CCCNC1=O` (stereo unspecified) showed a melting point of 67 to 69 °C.
On to `CCNC1CN(c2c(F)cc3c(=O)c(C(=O)O)cn(-c4nc(N)c(F)cc4F)c3c2Br)C1`, for which the melting point lay within 195 to 196 °C.
With `COC(=O)C1CCC2C3CCC4CC(O)C(OC)CC4(C)C3C(NC3CCCCC3)CC12C` (stereo unspecified) the figure was 141 to 143 °C.
With `O=C(O)CCc1cc2cc(OC(F)(F)F)ccc2n1S(=O)(=O)c1ccccc1` the figure was 138 to 146 °C.
The result for `OCCCc1ccc2ccccc2c1OCc1ccccc1` reads 80 to 81 °C; that for `CC(C)n1cc2c3c(cccc31)C1CC(C(=O)NCCc3c[nH]cn3)CN(C)C1C2` (stereo unspecified), 83 to 86 °C.
`CN(C(F)F)S(=O)(=O)c1ccccc1S(N)(=O)=O` came in with a melting point of 128 °C.
`CC(c1ccsc1)N(O)C(N)=O` (stereo unspecified) yielded a melting point of 138 to 140 °C.
Regarding `Cc1[nH]c(=O)n(C)c1-c1cc(C(C)(C)C)c(O)c(C(C)(C)C)c1`, the melting point lay within 285 to 286 °C.
With `CCCN1CCC(c2cccc(C(N)=O)c2)CC1`, the melting point came out at 182 °C.
With `CC(=O)C1CCC2C3CCC4=CC(=O)C=CC4(C)C3C=CC12C` (stereo unspecified) the figure was 167 to 169 °C; with `CCCC12CCC(=O)C=C1c1c(cc(CC(=O)O)c(Cl)c1Cl)C2` (stereo unspecified), 206 to 208 °C.
Compound `CCCCn1c(=O)c2c(N(C)C)n[nH]c2n(Cc2ccccc2)c1=O` yielded a melting point of 177 to 179 °C.
For the compound `O=S(c1[nH]c(-c2ccc(Cl)cc2)c(S(=O)(=O)C(F)(F)F)c1Br)C(F)(F)F` (stereo unspecified), the melting point lay in the range of 120 to 170 °C.
The result for `CC(O)c1cccc(Oc2ncccc2OCCCc2ccncc2)c1` (stereo unspecified) reads 93 to 97 °C; that for `COc1ccc(-c2cc(Nc3ccc(NS(C)(=O)=O)cc3)nc(C)n2)cc1OC`, 180 to 185 °C.
Consider `C=CCOc1ccc(C(=O)C=Cc2cc(OC)ccc2OC)cc1`, for which the melting point was 86 to 87 °C.
In turn, `COC(=O)CN(c1cc2cc(OC)c(=O)oc2cc1OCc1ccccc1)S(N)(=O)=O` displayed a melting point of 178 to 179 °C.
`Cc1ccc(NC(=O)Nc2ccc(Oc3cc(Cl)ncn3)cc2)cc1C(F)(F)F` displayed a melting point of 183 to 184 °C.
`Cc1cccc(C(=O)Nc2ccc(S(N)(=O)=O)cc2)c1SSc1c(C)cccc1C(=O)Nc1ccc(S(N)(=O)=O)cc1` had a melting point of 308 to 309 °C.
`COc1ccc(CCN2CCC(=C3c4ccccc4CCn4ncnc43)CC2)cc1` showed a melting point of 129 °C.
For `CCOC(=O)C1=CCC2(CC1S(=O)(=O)Nc1ccc(F)cc1Cl)OCCO2` (stereo unspecified), the melting point fell in the range of 120 to 122 °C.
On to `Cc1ccc(CC(=O)c2sccc2S(=O)(=O)Nc2onc(C)c2Br)cc1`, for which the melting point was in the range of 146 to 150 °C.
With `CC(=O)C1CCC2=C(C1)C1OC2c2cc3ccccc3cc21` (stereo unspecified), the melting point was 158 to 160 °C.
In turn, `Cc1ccc(C)c2oc(CN3CCC[C@@H](OCc4cc(C(F)(F)F)cc(C(F)(F)F)c4)[C@H]3c3ccccc3)nc12` (relative stereo) gave a melting point of 109 to 110 °C.
`N#Cc1ccccc1NC1=CC(=O)CCC1` showed a melting point of 206 °C.
In turn, `COc1ccc(S(=O)(=O)C(C)(Cc2ccc(-c3ccccc3)cc2)C(=O)O)cc1` (stereo unspecified) displayed a melting point of 161 °C.
As to `CCC1(CC)OC(=S)Nc2ccc(-c3cccc([N+](=O)[O-])c3)cc21`, the melting point is 180 to 181 °C.
As to `O=C1CCC(N2C(=O)c3cccc(CNC(=O)Nc4ccc5c(c4)OCO5)c3C2=O)C(=O)N1` (stereo unspecified), the melting point fell in the range of 216 to 218 °C.
Take `CCOC(=O)N(C)CCCC1=CC2(CCCC2)c2ccccc21`: the melting point was 90 °C.
As for `COc1ccc(CN2C(=O)CCC2C(=O)O)cc1` (stereo unspecified), the melting point was in the range of 103 to 104 °C.
For `COc1cc(C=C(CC(=O)N2CCOCC2)C(=O)O)cc(OC)c1OC`, the melting point is 135 to 138 °C.
In turn, `O=C(NC1CC1)[C@@H]1CN(C(=O)OCc2ccccc2)C[C@H]1O` gave a melting point of 132 to 133 °C.
With `COC(=O)C(CCn1c(C(=O)c2ccccc2)cc(Br)c1Br)C(=O)OC` the figure was 96 to 96.5 °C; with `COc1cccc(C=CC2=NN(C(C)=O)C(C)Cc3cc4c(cc32)OCO4)c1OC` (stereo unspecified), 125 to 128 °C; with `O=C(O)CCC(=O)c1ccc(-n2cncn2)cc1`, 234 to 235 °C.
On to `COc1cc2c(Nc3cc(O)c(Cl)cc3F)c(C#N)cnc2c(OC)c1OC`, for which the melting point was in the range of 223 to 225 °C.
As to `Nc1cnc(-c2ccc(Cl)cc2)n(CC(=O)NC(Cc2ccccc2)C(=O)C(F)(F)F)c1=O` (stereo unspecified), the melting point was 197 to 200 °C.
With `CCc1ccc(CCOc2ccc(NC(=O)N(C)OC)cc2)nc1` the figure was 90.5 to 92 °C.
`CC1(C)Cc2nc(C3CCCC3)c(C(F)c3ccc(C(F)(F)F)cc3)c(-c3ccc(F)c(F)c3)c2C(O)C1` (stereo unspecified) came in with a melting point of 149 to 150 °C.
Regarding `N#Cc1cccc2[nH]ccc12`, the melting point lay in the range of 115 to 116 °C.
The compound `COc1cc(C2=CCCCC2)c(Cl)cc1C(=O)N1Cc2ccc(C(=O)N(C)Cc3cccnc3)n2Cc2ccccc21` yielded a melting point of 178 to 179 °C.
For `CC(C)NCC(O)COc1ccc2nc3[nH]c(=O)[nH]c3cc2c1` (stereo unspecified), the melting point was in the range of 262 to 264 °C.
Turning to `CS(=O)CCC1=NS(=O)(=O)NC(N)=N1` (stereo unspecified), the melting point was 180 to 182 °C.
The result for `Cc1oc(-c2ccccc2)nc1CCOc1ccc(C=C2SC(=O)NC2=O)cc1` reads 213 to 214 °C; that for `Cn1cncc1C(c1ccc(Cl)cc1)c1ccc2c(c1)C(c1cccc(Cl)c1)SCCC(=O)N2` (stereo unspecified), 199 °C.
The compound `O=C(Nc1c([N+](=O)[O-])cnn1-c1c(Cl)cc(C(F)(F)F)c(Cl)c1Cl)C(Cl)Cl` returned a melting point of 112 to 120 °C.
Consider `CCNc1cc(NS(=O)(=O)c2ccc(N)cc2)nc(N(C)C)n1`, for which the melting point lay within 237 to 238 °C.
With `NC(C(=O)CCC(=O)O)c1ccc(Nc2n[nH]c3ncnc(Nc4cccc(Cl)c4)c23)cc1` (stereo unspecified) the figure was 205 to 207 °C; with `CS(=O)(=O)OCCc1ccc([N+](=O)[O-])cc1COS(C)(=O)=O`, 83 to 85 °C.
The compound `O=Cc1cccn2cc(C(F)(F)F)nc12` came in with a melting point of 98 to 100 °C.
The result for `Cc1cc2c(c3ccc(=O)[nH]c13)OC(CSCCN(C)C)C2` (stereo unspecified) reads 163 to 165 °C; that for `N#Cc1cc(-c2nc3cncnc3[nH]2)ccc1Oc1ccc(F)cc1`, more than 250 °C.
`COc1ccc(N2CCN(c3c(C)c(C)c4c(c3C)CC(C)(CN3CCC5(CC3)OCCO5)O4)CC2)cc1` (stereo unspecified): the melting point lay in the range of 165 to 167 °C.
On to `CCCCC1(CCCC)CCc2c(OCc3ccccc3C(N)=O)cccc2C1O` (stereo unspecified), for which the melting point lay in the range of 73 to 75 °C.
Compound `COc1cn(C(C)=O)c2ccc(F)c(Cl)c12` yielded a melting point of 114 to 115 °C.
`C/C(=N\OCCOc1ccc(C(=O)O)c(O)c1)c1ccc(C(C)(C)C)cc1` yielded a melting point of 157 to 159 °C.
The result for `O=C1c2cc(F)cc(F)c2OC[C@H]1NC(=O)C(F)(F)F` reads 167 to 168 °C; that for `Cc1ccc(-c2cnc(-c3cc(C(F)(F)F)cc(C(F)(F)F)c3)s2)s1`, 120 to 121 °C.
Regarding `COc1ccccc1N1CCN(Cc2ccccc2C(c2ccc(O)cc2)c2ccc(O)cc2)CC1`, the melting point lay in the range of 175 to 178 °C.
`CC(C)Oc1cc(-n2nc(C(F)(F)F)n(C)c2=O)c(Cl)cc1Cl` gave a melting point of 96 to 98 °C.
Turning to `CCOC(=O)/C=C/c1cnc2c(c1)C(=O)N(C)c1ccc(Cl)nc1N2CC`, the melting point is 192 to 193 °C.
For `CC(=O)NC(CC(=O)c1ccccc1)OC(C)=O` (stereo unspecified), the melting point fell in the range of 82 to 83 °C.
For the compound `C=CCNc1nc(NC(C)CC)c2scc(C)c2n1` (stereo unspecified), the melting point fell in the range of 91 to 92 °C.
Regarding `COc1ccc(C(=O)c2nccs2)cc1OCc1ccc2ccccc2c1`, the melting point was determined as 80 °C.
`COc1cc2c(cc1OC)C(c1ccccc1N)=NN=C(C)C2` had a melting point of 172 to 174 °C.
With `CCN(CCCC12CC3CC(CC(C3)C1)C2)C(=O)NCCCc1ccncc1` the figure was 97.5 to 98.2 °C; with `O=C(NNc1ccc(NC(=S)NCc2ccccc2)cc1)c1ccc(Cl)cc1`, 197 to 199 °C; with `Cn1ccc2ccc(N3Cc4c(cccc4[N+](=O)[O-])C3=O)cc21`, 225 to 262 °C.
